According to patent US9738634B2, “Heterocyclic amide compound and herbicide” (SYNGENTA PARTICIPATIONS AG, priority 2013, dated 2017):

Key:
Assay type in all cases: in vivo
barnyard grass [1] = assay: Test Example 1: weedkilling efficacy, preemergent weed treatment in the submerged state; A: barnyard grass; conditions: treatment dosage 252 g/ha
Method in brief: (§1)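 Emulsion diluted with water to the specified per-hectare dosage is applied onto flood water (4 cm) over alluvial soil on the sowing day, with barnyard grass, bulrush and pondweed seeded and rice (2.5-leaf) transplanted; plants grow at 25–30 °C and are rated at 3 weeks.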

bulrush [2] = assay: Test Example 1: weedkilling efficacy, preemergent weed treatment in the submerged state; B: bulrush; conditions: treatment dosage 252 g/ha
Method in brief: as §1

oval-leafed pondweed [3] = assay: Test Example 1: weedkilling efficacy, preemergent weed treatment in the submerged state; C: oval-leafed pondweed; conditions: treatment dosage 252 g/ha
Method in brief: as §1

transplanted rice = assay: Test Example 1: preemergent weed treatment in the submerged state, effect on crop; a: transplanted rice; conditions: treatment dosage 252 g/ha
Method in brief: as §1

barnyard grass [4] = assay: Test Example 2: weedkilling efficacy, growth period weed treatment in the submerged state; A: barnyard grass; conditions: treatment dosage 252 g/ha
Method in brief: (§2)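 First, alluvial soil in pots is flooded to 4 cm and mixed seed is sown. Next, plants grow in a greenhouse at 25 to 30° C until the 1-2 leaf stage. Then diluted emulsion is applied onto the water surface at the given g/ha rate, and injury is assessed after 3 weeks.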

bulrush [5] = assay: Test Example 2: weedkilling efficacy, growth period weed treatment in the submerged state; B: bulrush; conditions: treatment dosage 252 g/ha
Method in brief: as §2

oval-leafed pondweed [6] = assay: Test Example 2: weedkilling efficacy, growth period weed treatment in the submerged state; C: oval-leafed pondweed; conditions: treatment dosage 252 g/ha
Method in brief: as §2

crabgrass [7] = assay: Test Example 3: weedkilling efficacy through soil treatment; D: crabgrass; conditions: treatment dosage 315 g/ha
Method in brief: (§3)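 Crop and weed responses were judged three weeks after a uniform surface spray of the water-diluted emulsion at the given g/ha rate. Seeds sat beneath about 1.5 cm of sterilized diluvial soil, and boxes stood in a greenhouse at 25 to 30° C.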

green foxtail [8] = assay: Test Example 3: weedkilling efficacy through soil treatment; E: green foxtail; conditions: treatment dosage 315 g/ha
Method in brief: as §3

wild oat = assay: Test Example 3: weedkilling efficacy through soil treatment; G: wild oat; conditions: treatment dosage 315 g/ha
Method in brief: as §3

black-grass [9] = assay: Test Example 3: weedkilling efficacy through soil treatment; H: black-grass; conditions: treatment dosage 315 g/ha
Method in brief: as §3

Italian ryegrass [10] = assay: Test Example 3: weedkilling efficacy through soil treatment; I: Italian ryegrass; conditions: treatment dosage 315 g/ha
Method in brief: as §3

Indian mallow [11] = assay: Test Example 3: weedkilling efficacy through soil treatment; K: Indian mallow; conditions: treatment dosage 315 g/ha
Method in brief: as §3

redroot pigweed [12] = assay: Test Example 3: weedkilling efficacy through soil treatment; L: redroot pigweed; conditions: treatment dosage 315 g/ha
Method in brief: as §3

fig-leafed goosefoot [13] = assay: Test Example 3: weedkilling efficacy through soil treatment; M: fig-leafed goosefoot; conditions: treatment dosage 315 g/ha
Method in brief: as §3

chickweed [14] = assay: Test Example 3: weedkilling efficacy through soil treatment; N: chickweed; conditions: treatment dosage 315 g/ha
Method in brief: as §3

birds-eye speedwell [15] = assay: Test Example 3: weedkilling efficacy through soil treatment; p: birds-eye speedwell; conditions: treatment dosage 315 g/ha
Method in brief: as §3

directly sown rice [16] = assay: Test Example 3: soil treatment, effect on crop; b: directly sown rice; conditions: treatment dosage 315 g/ha
Method in brief: as §3

corn [17] = assay: Test Example 3: soil treatment, effect on crop; c: corn; conditions: treatment dosage 315 g/ha
Method in brief: as §3

soybean [18] = assay: Test Example 3: soil treatment, effect on crop; d: soybean; conditions: treatment dosage 315 g/ha
Method in brief: as §3

wheat [19] = assay: Test Example 3: soil treatment, effect on crop; e: wheat; conditions: treatment dosage 315 g/ha
Method in brief: as §3

beet [20] = assay: Test Example 3: soil treatment, effect on crop; f: beet; conditions: treatment dosage 315 g/ha
Method in brief: as §3

crabgrass [21] = assay: Test Example 4: weedkilling efficacy by foliar treatment; D: crabgrass; conditions: treatment dosage 315 g/ha
Method in brief: (§4)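 Seeds are spot-sown into sterilized diluvial soil and covered with about 1.5 cm of soil. After 14 days' greenhouse growth at 25 to 30° C, plants are sprayed on stems and leaves with diluted emulsion at the stated g/ha rate, then scored at 3 weeks.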

green foxtail [22] = assay: Test Example 4: weedkilling efficacy by foliar treatment; E: green foxtail; conditions: treatment dosage 315 g/ha
Method in brief: as §4

black-grass [23] = assay: Test Example 4: weedkilling efficacy by foliar treatment; H: black-grass; conditions: treatment dosage 315 g/ha
Method in brief: as §4

Italian ryegrass [24] = assay: Test Example 4: weedkilling efficacy by foliar treatment; I: Italian ryegrass; conditions: treatment dosage 315 g/ha
Method in brief: as §4

Indian mallow [25] = assay: Test Example 4: weedkilling efficacy by foliar treatment; K: Indian mallow; conditions: treatment dosage 315 g/ha
Method in brief: as §4

redroot pigweed [26] = assay: Test Example 4: weedkilling efficacy by foliar treatment; L: redroot pigweed; conditions: treatment dosage 315 g/ha
Method in brief: as §4

fig-leafed goosefoot [27] = assay: Test Example 4: weedkilling efficacy by foliar treatment; M: fig-leafed goosefoot; conditions: treatment dosage 315 g/ha
Method in brief: as §4

chickweed [28] = assay: Test Example 4: weedkilling efficacy by foliar treatment; N: chickweed; conditions: treatment dosage 315 g/ha
Method in brief: as §4

catchweed = assay: Test Example 4: weedkilling efficacy by foliar treatment; O: catchweed; conditions: treatment dosage 315 g/ha
Method in brief: as §4

birds-eye speedwell [29] = assay: Test Example 4: weedkilling efficacy by foliar treatment; p: birds-eye speedwell; conditions: treatment dosage 315 g/ha
Method in brief: as §4

directly sown rice [30] = assay: Test Example 4: foliar treatment, effect on crop; b: directly sown rice; conditions: treatment dosage 315 g/ha
Method in brief: as §4

corn [31] = assay: Test Example 4: foliar treatment, effect on crop; c: corn; conditions: treatment dosage 315 g/ha
Method in brief: as §4

soybean [32] = assay: Test Example 4: foliar treatment, effect on crop; d: soybean; conditions: treatment dosage 315 g/ha
Method in brief: as §4

wheat [33] = assay: Test Example 4: foliar treatment, effect on crop; e: wheat; conditions: treatment dosage 315 g/ha
Method in brief: as §4

beet [34] = assay: Test Example 4: foliar treatment, effect on crop; f: beet; conditions: treatment dosage 315 g/ha
Method in brief: as §4

| Compound | A (barnyard grass) weedkilling efficacy grade (barnyard grass [1]) | B (bulrush) weedkilling efficacy grade (bulrush [2]) | C (oval-leafed pondweed) weedkilling efficacy grade (oval-leafed pondweed [3]) | a (transplanted rice) effect on crop grade (transplanted rice) | A (barnyard grass) weedkilling efficacy grade (barnyard grass [4]) | B (bulrush) weedkilling efficacy grade (bulrush [5]) | C (oval-leafed pondweed) weedkilling efficacy grade (oval-leafed pondweed [6]) | D (crabgrass) weedkilling efficacy grade (crabgrass [7]) | E (green foxtail) weedkilling efficacy grade (green foxtail [8]) | G (wild oat) weedkilling efficacy grade (wild oat) | H (black-grass) weedkilling efficacy grade (black-grass [9]) | I (Italian ryegrass) weedkilling efficacy grade (Italian ryegrass [10]) | K (Indian mallow) weedkilling efficacy grade (Indian mallow [11]) | L (redroot pigweed) weedkilling efficacy grade (redroot pigweed [12]) | M (fig-leafed goosefoot) weedkilling efficacy grade (fig-leafed goosefoot [13]) | N (chickweed) weedkilling efficacy grade (chickweed [14]) | P (birds-eye speedwell) weedkilling efficacy grade (birds-eye speedwell [15]) | b (directly sown rice) effect on crop grade (directly sown rice [16]) | c (corn) effect on crop grade (corn [17]) | d (soybean) effect on crop grade (soybean [18]) | also measured |
| --- | --- | --- | --- | --- | --- | --- | --- | --- | --- | --- | --- | --- | --- | --- | --- | --- | --- | --- | --- | --- | --- |
| CC1=C(c2ccsc2)C(=O)N(C(C)(C)C(=O)Nc2nc(C)ns2)CO1 [B-1-01] | 5 (weed kill ratio 90% or more, (practically complete withering)) | 5 (weed kill ratio 90% or more, (practically complete withering)) | 5 (weed kill ratio 90% or more, (practically complete withering)) | 4 (weed kill ratio 70% or more, less than 90%) | 5 (weed kill ratio 90% or more, (practically complete withering)) | 5 (weed kill ratio 90% or more, (practically complete withering)) | 5 (weed kill ratio 90% or more, (practically complete withering)) | 5 (weed kill ratio 90% or more, (practically complete withering)) | 5 (weed kill ratio 90% or more, (practically complete withering)) | 5 (weed kill ratio 90% or more, (practically complete withering)) | 5 (weed kill ratio 90% or more, (practically complete withering)) | 5 (weed kill ratio 90% or more, (practically complete withering)) | 3 (weed kill ratio 40% or more, less than 70%) | 4 (weed kill ratio 70% or more, less than 90%) | 5 (weed kill ratio 90% or more, (practically complete withering)) | 3 (weed kill ratio 40% or more, less than 70%) | 5 (weed kill ratio 90% or more, (practically complete withering)) | 5 (weed kill ratio 90% or more, (practically complete withering)) | 0 (weed kill ratio 5% or less (practically no effect)) | 2 (weed kill ratio 20% or more, less than 40%) | e (wheat) effect on crop grade (wheat [19]): 4 (weed kill ratio 70% or more, less than 90%); f (beet) effect on crop grade (beet [20]): 3 (weed kill ratio 40% or more, less than 70%); D (crabgrass) weedkilling efficacy grade (crabgrass [21]): 5 (weed kill ratio 90% or more, (practically complete withering)); E (green foxtail) weedkilling efficacy grade (green foxtail [22]): 5 (weed kill ratio 90% or more, (practically complete withering)); H (black-grass) weedkilling efficacy grade (black-grass [23]): 5 (weed kill ratio 90% or more, (practically complete withering)); I (Italian ryegrass) weedkilling efficacy grade (Italian ryegrass [24]): 5 (weed kill ratio 90% or more, (practically complete withering)); K (Indian mallow) weedkilling efficacy grade (Indian mallow [25]): 4 (weed kill ratio 70% or more, less than 90%); L (redroot pigweed) weedkilling efficacy grade (redroot pigweed [26]): 5 (weed kill ratio 90% or more, (practically complete withering)); M (fig-leafed goosefoot) weedkilling efficacy grade (fig-leafed goosefoot [27]): 5 (weed kill ratio 90% or more, (practically complete withering)); N (chickweed) weedkilling efficacy grade (chickweed [28]): 4 (weed kill ratio 70% or more, less than 90%); O (catchweed) weedkilling efficacy grade (catchweed): 4 (weed kill ratio 70% or more, less than 90%); P (birds-eye speedwell) weedkilling efficacy grade (birds-eye speedwell [29]): 4 (weed kill ratio 70% or more, less than 90%); b (directly sown rice) effect on crop grade (directly sown rice [30]): 5 (weed kill ratio 90% or more, (practically complete withering)); c (corn) effect on crop grade (corn [31]): 4 (weed kill ratio 70% or more, less than 90%); d (soybean) effect on crop grade (soybean [32]): 4 (weed kill ratio 70% or more, less than 90%); e (wheat) effect on crop grade (wheat [33]): 1 (weed kill ratio 5% or more, less than 20%); f (beet) effect on crop grade (beet [34]): 4 (weed kill ratio 70% or more, less than 90%) |
| CSc1nsc(NC(=O)C(C)(C)N2COC(C)=C(c3ccsc3)C2=O)n1 [B-1-05] | 5 (weed kill ratio 90% or more, (practically complete withering)) | 5 (weed kill ratio 90% or more, (practically complete withering)) | 5 (weed kill ratio 90% or more, (practically complete withering)) | 4 (weed kill ratio 70% or more, less than 90%) | 5 (weed kill ratio 90% or more, (practically complete withering)) | 5 (weed kill ratio 90% or more, (practically complete withering)) | 5 (weed kill ratio 90% or more, (practically complete withering)) | 5 (weed kill ratio 90% or more, (practically complete withering)) | 5 (weed kill ratio 90% or more, (practically complete withering)) | 5 (weed kill ratio 90% or more, (practically complete withering)) | 5 (weed kill ratio 90% or more, (practically complete withering)) | 0 (weed kill ratio 5% or less (practically no effect)) | 4 (weed kill ratio 70% or more, less than 90%) | 4 (weed kill ratio 70% or more, less than 90%) | 5 (weed kill ratio 90% or more, (practically complete withering)) | 4 (weed kill ratio 70% or more, less than 90%) | 5 (weed kill ratio 90% or more, (practically complete withering)) | 5 (weed kill ratio 90% or more, (practically complete withering)) | 1 (weed kill ratio 5% or more, less than 20%) | 0 (weed kill ratio 5% or less (practically no effect)) | e (wheat) effect on crop grade (wheat [19]): 0 (weed kill ratio 5% or less (practically no effect)); f (beet) effect on crop grade (beet [20]): 5 (weed kill ratio 90% or more, (practically complete withering)); D (crabgrass) weedkilling efficacy grade (crabgrass [21]): 5 (weed kill ratio 90% or more, (practically complete withering)); E (green foxtail) weedkilling efficacy grade (green foxtail [22]): 5 (weed kill ratio 90% or more, (practically complete withering)); H (black-grass) weedkilling efficacy grade (black-grass [23]): 5 (weed kill ratio 90% or more, (practically complete withering)); I (Italian ryegrass) weedkilling efficacy grade (Italian ryegrass [24]): 4 (weed kill ratio 70% or more, less than 90%); K (Indian mallow) weedkilling efficacy grade (Indian mallow [25]): 5 (weed kill ratio 90% or more, (practically complete withering)); L (redroot pigweed) weedkilling efficacy grade (redroot pigweed [26]): 5 (weed kill ratio 90% or more, (practically complete withering)); M (fig-leafed goosefoot) weedkilling efficacy grade (fig-leafed goosefoot [27]): 5 (weed kill ratio 90% or more, (practically complete withering)); N (chickweed) weedkilling efficacy grade (chickweed [28]): 4 (weed kill ratio 70% or more, less than 90%); O (catchweed) weedkilling efficacy grade (catchweed): 4 (weed kill ratio 70% or more, less than 90%); P (birds-eye speedwell) weedkilling efficacy grade (birds-eye speedwell [29]): 5 (weed kill ratio 90% or more, (practically complete withering)); b (directly sown rice) effect on crop grade (directly sown rice [30]): 4 (weed kill ratio 70% or more, less than 90%); c (corn) effect on crop grade (corn [31]): 2 (weed kill ratio 20% or more, less than 40%); d (soybean) effect on crop grade (soybean [32]): 0 (weed kill ratio 5% or less (practically no effect)); e (wheat) effect on crop grade (wheat [33]): 0 (weed kill ratio 5% or less (practically no effect)); f (beet) effect on crop grade (beet [34]): 4 (weed kill ratio 70% or more, less than 90%) |
